Measurements reported in patent publication US20200215036A1, “BENZIMIDAZOLE COMPOUNDS AS KINASE INHIBITORS” (GB005, Inc., priority 2017, published 2020).

Experiments:
ITK = biological target: T1, ITK (Homo sapiens, UniProt Q08881); assay: Biochemical kinase assay (Nanosyn, micro-fluidic detection), ITK; settings: 12 concentrations, 3 hours incubation, 1 uM peptide substrate
T1 sequence (Q08881 1-620): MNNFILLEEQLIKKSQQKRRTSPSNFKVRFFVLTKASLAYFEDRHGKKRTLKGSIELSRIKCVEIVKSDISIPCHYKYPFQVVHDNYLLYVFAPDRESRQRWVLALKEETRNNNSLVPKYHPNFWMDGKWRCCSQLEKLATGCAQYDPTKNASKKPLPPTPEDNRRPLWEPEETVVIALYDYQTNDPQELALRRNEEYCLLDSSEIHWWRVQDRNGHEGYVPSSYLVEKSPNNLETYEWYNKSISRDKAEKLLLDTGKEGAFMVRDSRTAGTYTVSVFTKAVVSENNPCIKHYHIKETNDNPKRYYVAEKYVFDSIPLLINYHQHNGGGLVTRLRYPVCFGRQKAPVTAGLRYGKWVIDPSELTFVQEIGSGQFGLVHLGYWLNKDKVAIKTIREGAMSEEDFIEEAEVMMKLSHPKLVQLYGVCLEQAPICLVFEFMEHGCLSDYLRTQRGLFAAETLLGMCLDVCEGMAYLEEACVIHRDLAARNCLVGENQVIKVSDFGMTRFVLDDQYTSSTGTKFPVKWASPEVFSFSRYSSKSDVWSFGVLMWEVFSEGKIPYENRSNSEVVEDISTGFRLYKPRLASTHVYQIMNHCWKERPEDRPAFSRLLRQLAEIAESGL
Experimental: (§1) The in vitro kinase assays were performed at Nanosyn (Santa Clara, Calif.) utilizing micro-fluidic detection Technology. The test compounds were serially pre-diluted in DMSO and added, by the acoustic dispensing (Labcyte® 550), directly to 384we11 assay plates into 10 uL of a buffer with enzyme comprising: 100 mM HEPES, pH7.5, 5 mM MgCl2, 0.1% bovine serum albumin, 1 mM DTT, 0.01% Triton X-100 and the enzyme. Final DMSO concentration was maintained at 1% in all samples, including the controls. The reactions were initiated by addition of ATP (to the specified concentration) and the fluorescently labeled peptide substrate to a final concentration of 1 uM, and incubated for 3 hours at […]. Following incubation, the reactions were quenched by addition of 40 μL of termination buffer (100 mM HEPES, pH7.5, 0.01% Triton X-100, 50 mM EDTA). Terminated plates were analyzed using Caliper LabChip® 3000 microfluidic electrophoresis instrument (Caliper Life Sciences/Perkin Elmer). The enzymatic modification of the peptide substrate (phosphorylation) results in a change of net charge enabling electrophoretic separation of product from substrate. As substrate and product are separated by electrophoresis, two peaks of fluorescence are observed. Change in the relative fluorescence intensity of the substrate and product peaks was the parameter measured, reflecting enzyme activity. In the presence of inhibitor, the ratio between product and substrate is altered: signal of the product decreases, while the signal of the substrate increases. Activity in each test sample was determined as the product to sum ratio (PSR): P/(S+P), where P is the peak height of the product and S is the peak height of the FAM-cAMP substrate. For each compound, enzyme activity was measured at 12 concentrations spaced by 3× dilution intervals. Negative control samples (0%−inhibition in the absence of inhibitor, DMSO only) and positive control samples (100%−inhibition, in the absence of enzyme or in the presence of control inhibitor) were assembled in replicates of four and were used to calculate %−inhibition values in the presence of compounds. Percent inhibition (Pinh) was determined using the following equation: Pinh=(PSR0%−PSRinh)/(PSR0%−PSR100%)*100, where PSRinh is the product sum ratio in the presence of inhibitor, PSR0% is the product sum ratio in the absence of inhibitor and PSR100% is the product sum ratio in 100%-inhibition control samples. To determine IC50 values, the inhibition curves (Pinh versus inhibitor concentration) were fitted by 4 parameter sigmoid dose-response model using XLfit software (IDBS).

TXK = biological target: T2, TXK (Homo sapiens, UniProt P42681); assay: Biochemical kinase assay (Nanosyn, micro-fluidic detection), TXK; settings: for IC50: 12 concentrations, 3 hours incubation, 1 uM peptide substrate; for ITK/TXK Ratio: ratio of ITK IC50 to TXK IC50
T2 sequence (P42681 1-527): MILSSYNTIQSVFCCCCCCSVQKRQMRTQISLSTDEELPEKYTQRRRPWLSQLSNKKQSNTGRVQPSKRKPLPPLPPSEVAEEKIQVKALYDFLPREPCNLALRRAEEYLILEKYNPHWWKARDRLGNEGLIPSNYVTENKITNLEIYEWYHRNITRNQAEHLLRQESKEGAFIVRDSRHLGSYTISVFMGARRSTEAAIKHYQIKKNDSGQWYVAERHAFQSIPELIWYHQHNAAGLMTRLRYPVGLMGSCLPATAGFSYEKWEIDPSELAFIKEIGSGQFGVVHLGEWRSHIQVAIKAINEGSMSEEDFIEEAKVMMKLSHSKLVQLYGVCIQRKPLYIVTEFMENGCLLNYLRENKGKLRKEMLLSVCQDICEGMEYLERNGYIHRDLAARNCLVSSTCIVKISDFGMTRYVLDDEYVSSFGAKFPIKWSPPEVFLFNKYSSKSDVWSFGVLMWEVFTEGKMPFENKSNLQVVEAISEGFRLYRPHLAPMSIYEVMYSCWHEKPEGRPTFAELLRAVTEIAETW
Experimental: as §1

TEC = biological target: T3, TEC (Homo sapiens, UniProt P42680); assay: Biochemical kinase assay (Nanosyn, micro-fluidic detection), TEC; settings: 12 concentrations, 3 hours incubation, 1 uM peptide substrate
T3 sequence (P42680 1-631): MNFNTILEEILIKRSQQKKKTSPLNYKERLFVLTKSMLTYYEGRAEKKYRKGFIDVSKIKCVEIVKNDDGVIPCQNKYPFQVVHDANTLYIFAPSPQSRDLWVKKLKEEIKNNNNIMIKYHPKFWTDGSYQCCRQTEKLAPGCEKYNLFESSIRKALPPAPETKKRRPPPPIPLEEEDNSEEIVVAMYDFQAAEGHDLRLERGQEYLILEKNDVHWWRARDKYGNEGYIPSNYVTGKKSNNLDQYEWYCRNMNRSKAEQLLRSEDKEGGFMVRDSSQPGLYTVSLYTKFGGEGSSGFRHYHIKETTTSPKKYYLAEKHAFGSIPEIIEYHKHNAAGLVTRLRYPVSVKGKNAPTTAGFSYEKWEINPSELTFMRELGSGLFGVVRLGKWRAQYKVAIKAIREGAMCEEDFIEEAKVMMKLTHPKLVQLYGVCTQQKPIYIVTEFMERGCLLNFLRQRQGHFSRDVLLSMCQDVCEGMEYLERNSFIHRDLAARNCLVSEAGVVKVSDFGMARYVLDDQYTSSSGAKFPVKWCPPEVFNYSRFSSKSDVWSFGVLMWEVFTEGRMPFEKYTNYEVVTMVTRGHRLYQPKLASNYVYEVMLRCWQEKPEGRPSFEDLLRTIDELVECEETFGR
Experimental: as §1

BTK = BTK (Homo sapiens, UniProt Q06187); assay: Biochemical kinase assay (Nanosyn, micro-fluidic detection), BTK; settings: 12 concentrations, 3 hours incubation, 1 uM peptide substrate
Experimental: as §1

BTK, sequence (Q06187 whole entry): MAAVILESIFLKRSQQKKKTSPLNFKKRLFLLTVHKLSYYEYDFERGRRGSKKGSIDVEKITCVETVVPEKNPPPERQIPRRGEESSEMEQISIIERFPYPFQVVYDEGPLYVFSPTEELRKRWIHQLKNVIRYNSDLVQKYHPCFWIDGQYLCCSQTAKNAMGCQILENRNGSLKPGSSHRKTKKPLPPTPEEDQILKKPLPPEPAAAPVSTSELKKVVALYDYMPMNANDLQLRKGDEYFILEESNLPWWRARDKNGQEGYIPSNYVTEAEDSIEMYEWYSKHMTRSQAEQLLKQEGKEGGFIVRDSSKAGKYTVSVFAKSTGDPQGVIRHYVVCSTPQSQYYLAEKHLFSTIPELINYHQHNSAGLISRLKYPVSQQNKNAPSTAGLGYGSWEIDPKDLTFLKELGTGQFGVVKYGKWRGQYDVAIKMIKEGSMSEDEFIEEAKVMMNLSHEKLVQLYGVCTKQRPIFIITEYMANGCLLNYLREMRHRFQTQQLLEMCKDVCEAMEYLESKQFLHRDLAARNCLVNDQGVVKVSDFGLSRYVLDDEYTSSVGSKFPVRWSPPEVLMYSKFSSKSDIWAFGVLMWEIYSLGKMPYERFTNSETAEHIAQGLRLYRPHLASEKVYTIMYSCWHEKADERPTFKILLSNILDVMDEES

IC50 (ITK) [nM] | IC50 (TXK) [nM] | ITK/TXK Ratio (TXK) | IC50 (TEC) [nM] | IC50 (BTK) [nM] | SMILES
127 | 5.28 | 24.1 | 95.5 | 16.1 | C=CC(=O)N1CC[C@]2(C1)C[C@H](n1c(NC(=O)c3cc(C)no3)nc3cc(CN4CCCC4)ccc31)C2 [Compound 1]
40.9 | 3.02 | 13.5 | 11.1 | 14.7 | C=CC(=O)N1CC[C@]2(C1)C[C@H](n1c(NC(=O)c3cc(C)no3)nc3cc(CN4CCOCC4)ccc31)C2 [Compound 2]
536 | 5.04 | – | 529 | 59.7 | C=CC(=O)N1CC[C@]2(C1)C[C@H](n1c(NC(=O)c3cc(C(C)(C)C)no3)nc3cc(CN4CCCC4)ccc31)C2 [Compound 7]
369 | 1.97 | 187 | 136 | 25.7 | C=CC(=O)N1CC[C@]2(C1)C[C@H](n1c(NC(=O)c3cc(-c4ccccc4)no3)nc3cc(CN4CCCC4)ccc31)C2 [Compound 8]
553 | 1.42 | 390 | 96.3 | 12 | C=CC(=O)N1CC[C@]2(C1)C[C@H](n1c(NC(=O)c3cc(C(C)C)no3)nc3cc(CN4CCCC4)ccc31)C2 [Compound 4]
576 | 1.25 | 461 | 50.5 | 7.65 | C=CC(=O)N1CC[C@]2(C1)C[C@H](n1c(NC(=O)c3cc(C4CCC4)no3)nc3cc(CN4CCCC4)ccc31)C2 [Compound 5]
> 1000 | 1.78 | >561 | 105 | 10.1 | C=CC(=O)N1CC[C@]2(C1)C[C@H](n1c(NC(=O)c3cc(C4CCCCC4)no3)nc3cc(CN4CCCC4)ccc31)C2 [Compound 6]
80.9 | 3.48 | 23.2 | 43.9 | 17.9 | C=CC(=O)N1CC[C@]2(C1)C[C@H](n1c(NC(=O)c3cc(C)no3)nc3cc(CN4CCN(C)CC4)ccc31)C2 [Compound 3]
